In general, IC50 refers to the concentration needed to halve the response being measured. By EC50 is commonly meant the midpoint of the concentration-response curve. Low values mean a more potent agent, high ones a less potent agent.

Test [1] has as its target T1, HIV integrase (Human immunodeficiency virus type 1 group M subtype B, UniProt P04585). As to the kind of experiment: 3'processing/strand transfer combined assay. It counts as biochemical. On the procedure:
(§1) A combined 3′-processing/strand transfer assay procedure similar to that published (Ovenden et al. Phytochemistry. 2004 December; 65(24):3255-9.) was used. This assay was adapted to a 96 well plate format. Briefly, 400 ng of […] is incubated with 30 nM substrate DNA, consisting of annealed U5 LTR sequence oligonucleotides tagged with Digoxigenin (DIG; 5′-[…]-DIG-3′) or biotin (5′-Bio-[…]-3′) so that each substrate has either a DIG or Bio tag on opposite strands. Reactions are carried out for 2 hrs at 37° C., products generated as a result of 3′processing and strand transfer activity are bound to streptavidin plates and detected with using anti-DIG-alkaline phosphatase conjugate and p-nitro phenyl phosphate substrate.

The test system of test [2] is HIV. The test can be described thus: Inhibition of HIV replication (extracellular p24). Conditions: Human immunodeficiency virus 1; concentration inhibiting HIV p24 production to 50% of no drug controls. It counts as cell-based. The protocol: Cells are seeded into 96 well microtitre plates at 50,000 cells per 50 ul per well in RF-10 containing 2 μg/mL polybrene (RF-10/2). Compounds are prepared to 4× final concentration in RF-10/2, and 30 μL added to cells. Virus (40 μL in RF-10/2 containing 1600 pfu) is added to each well or 40 μL RF-10/2 for negative controls and for assaying compound cytotoxicity. After 24 hrs, an additional 90 μL of media or media containing 1× compound is added to each well. At 4 days post infection, 100 μL of media is removed from each well and replaced with 100 μl of fresh media with or without compound. Forty eight hours later supernatants are harvested and levels of extracellular p24 determined. Supernatants are diluted 1 in 10,000 and p24 levels assayed using the Vironostika p24 assay kit. EC50 is calculated as the concentration required to inhibit HIV p24 production to 50% that of no drug controls.

The target of test [3] is T1, HIV integrase. The test can be described thus: Strand transfer specific assay. Conditions: Table 8 cells marked (ST) / (ST assay): strand transfer specific. It counts as biochemical. The protocol:
as §1
The strand transfer specific assay is of similar format to that of the 3′processing/strand transfer combined assay except that it uses a biotinylated substrate that represents a pre-processed LTR end (5′-Bio-[…]-3′).

Setting [4] is: Table 8 cells that name no assay, taken as the 3'processing/strand transfer combined assay, read-out: IC50.

As to `N#Cc1c(-c2ccoc2)cc(-c2ccc(N3CCOCC3)cc2)nc1OCc1ccc(C(=O)O)cc1` [compound 14353], the IC50 in test [1] (setting [4]) was < 10 µM.
As to `N#Cc1c(-c2ccoc2)cc(-c2ccc(N3CCOCC3)cc2)nc1OCc1ccc(C(=O)O)s1` [compound 14483], in test [2], the EC50 is < 10 µM. The IC50 in test [1] lay within 10 to 50 µM.
Regarding `Cc1cc(C(=O)O)ccc1COc1nc(-c2ccc(N3CCOCC3)cc2)cc(-c2ccoc2)c1C#N` [compound 14499], in test [1] (setting [4]), the IC50 is < 10 µM.
Turning to `N#Cc1c(-c2ccoc2)cc(-c2ccc(N3CCOCC3)cc2)nc1OCc1nc(C(=O)O)cs1` [compound 14693], in test [1] (setting [4]), the IC50 is < 10 µM.
With `N#Cc1c(-c2ccoc2)cc(-c2ccc(N3CCOCC3)cc2)nc1OCc1nc(C(=O)O)co1` [compound 14761], the IC50 in test [1] (setting [4]) was 10 to 50 µM.
Same read-out and setting: under `N#Cc1cc(C(=O)O)sc1COc1nc(-c2ccc(N3CCOCC3)cc2)cc(-c2ccoc2)c1C#N` [compound 14905] stands < 10 µM.
On to `N#Cc1c(-c2ccoc2)cc(-c2ccc(N3CCOCC3)cc2)nc1OCc1c(C(=O)O)csc1Br` [compound 14906], for which the IC50 in test [1] (setting [4]) was < 10 µM.
As to `Cc1cc(-c2cc(-c3ccc(N4CCOCC4)cc3)nc(OCc3ccc(C(=O)O)s3)c2C#N)on1` [compound 14959], the IC50 in test [1] (setting [4]) is 10 to 50 µM.
As for `CCOc1cnc(-c2cc(-c3ccc(N4CCOCC4)cc3)nc(OCc3ccsc3C(=O)O)c2C#N)o1` [compound 14963], the IC50 in test [1] (setting [4]) lay in the range of 10 to 50 µM.
As for `CCOc1cnc(-c2cc(-c3ccc(N4CCOCC4)cc3)nc(OCc3csc(C(=O)O)c3)c2C#N)o1` [compound 15044], the IC50 in test [1] (setting [4]) is 10 to 50 µM.
With `Cc1cc(-c2cc(-c3ccc(N4CCOCC4)cc3)nc(OCc3csc(C(=O)O)c3)c2C#N)on1` [compound 15045], the IC50 in test [1] (setting [4]) was < 10 µM.
Regarding `Cc1cc(-c2cc(-c3ccc(N4CCOCC4)cc3)nc(OCc3ccc(C(=O)O)cc3Br)c2C#N)on1` [compound 15300], the IC50 in test [3] was < 10 µM.
For the compound `CCOc1cnc(-c2cc(-c3ccc(N4CCOCC4)cc3)nc(OCc3ccc(C(=O)O)cc3Br)c2C#N)o1` [compound 15303], the IC50 in test [3] was < 10 µM.
Take `CCOc1cnc(-c2cc(-c3ccc(N4CCOCC4)cc3)nc(OCc3sc(C(=O)O)cc3C#N)c2C#N)o1` [compound 15424]: in test [3], the IC50 was < 10 µM.
On the same count and under the same terms, for `N#Cc1c(-c2oncc2C(=O)O)cc(-c2ccc(N3CCOCC3)cc2)nc1OCc1ccc(C(=O)O)s1` [compound 15435] the value was < 10 µM.

(Values after patent US20100009973A1, “Integrase Inhibitors 3” (AVEXA LIMITED, priority 2006, published 2010).)
